We go through 16 molecules from US11390604B2 (Hoffmann-La Roche Inc., priority 2019, dated 2022).

Where a name gives a salt, the structure may show the parent alone.

For this experiment, the system named is Acinetobacter baumannii ATCC 17961. As to the kind of experiment: Antimicrobial susceptibility testing: 90% growth inhibitory concentration (IC90) determination. It counts as cell-based. Particulars: ATCC17961, Acinetobacter baumannii ATCC 17961, Iso-Sensitest broth, read-out: ATCC 17961 IC90. A digest of the protocol: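 Broth microdilution in Iso-Sensitest medium, twofold series (e.g. 50 to 0.097 μM final), ~5×10^5 CFU/ml inoculum, 35±2 °C. OD600 read every 20 min over 16 h. IC90 derived from growth inhibition during logarithmic phase.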
In the case of `CC1CN(C(=O)N[C@H]2C[C@@H](NC(=O)c3ccc(NC(=O)c4ncc(-c5cn(CC#N)nc5C(F)(F)F)n4C)cc3Cl)C2)CCN1` (stereo partly shown) [Example 354, N-[3-[[2-chloro-4-[[5-[1-(cyanomethyl)-3-(trifluoromethyl)pyrazol-4-yl]-1-methyl-imidazole-2-carbonyl]amino]benzoyl]amino]cyclobutyl]-3-methyl-piperazine-1-carboxamide; formic acid], the IC90 is 0.463 µM. With `Cn1c(-c2cn(CC#N)nc2C(F)(F)F)cnc1C(=O)Nc1ccc(C(=O)N2CCN(C(=O)[C@H]3C[C@H](N)C3)CC2)c(Cl)c1` [Example 355, N-[4-[4-(3-aminocyclobutanecarbonyl)piper-azine-1-carbonyl]-3-chlorophenyl]-5-[1-(cyanomethyl)-3-(trifluoromethyl)pyrazol-4-yl]-1-methylimidazole-2-carboxamide;trihydrochloride] the figure was 0.464 µM; with `CCc1cc(NC(=O)c2ncc(-c3cn(CC(F)F)nc3C(F)(F)F)n2C)ccc1C(=O)NCCCCCN` [Example 356, N-(4-((5-aminopentyl)carbamoyl)-3-ethylphenyl)-5-(1-(2,2-difluoroethyl)-3-(trifluoromethyl)-1H-pyrazol-4-yl)-1-methyl-1H-imidazole-2-carboxamide hydrochloride], 0.466 µM; with `CN(C)CCN(C)C1CCN(C(=O)c2ccc(NC(=O)c3ncc(-c4cn(C5CC5)nc4C(F)(F)F)n3C)cc2Cl)CC1` [Example 357, N-(3-chloro-4-(4-((2-(dimethylamino)ethyl)(methyl)amino)piperidine-1-carbonyl)phenyl)-5-(1-cyclopropyl-3-(trifluoromethyl)-1H-pyrazol-4-yl)-1-methyl-1H-imidazole-2-carboxamide], 0.466 µM. The result for `Cn1c(-c2cn(CC#N)nc2C(F)(F)F)cnc1C(=O)Nc1ccc(C(=O)N[C@H]2C[C@@H](NC(=O)N3CCC(CN)C3)C2)c(Cl)c1` (stereo partly shown) [Example 359, N-[4-[[3-[[3-(aminomethyl)pyrrolidine-1-carbonyl]amino]cyclobutyl]car-bamoyl]-3-chloro-phenyl]-5-[1-(cyanomethyl)-3-(trifluoromethyl)pyrazol-4-yl]-1-methyl-imidazole-2-carboxamide; formic acid] reads 0.467 µM. The result for `CCn1cc(-c2cnc(C(=O)Nc3ccc(C(=O)N4CCC(CCC(C)(C)N(C)C)CC4)c(Cl)c3)n2C)c(C(F)(F)F)n1` [Example 360, N-(3-chloro-4-(4-(3-(dimethylamino)-3-methylbutyl)piperidine-1-carbonyl)phenyl)-5-(1-ethyl-3-(trifluoromethyl)-1H-pyrazol-4-yl)-1-methyl-1H-imidazole-2-carboxamide] reads 0.474 µM; that for `Cn1c(-c2cn(CC#N)nc2C(F)(F)F)cnc1C(=O)Nc1ccc(C(=O)N[C@H]2C[C@@H](NC(=O)N3CCCC3CN)C2)c(Cl)c1` (stereo partly shown) [Example 361, N-[4-[[3-[[2-(aminomethyl)pyrrolidine-1-carbonyl]amino]cyclobutyl]car-bamoyl]-3-chloro-phenyl]-5-[1-(cyanomethyl)-3-(trifluoromethyl)pyrazol-4-yl]-1-methyl-imidazole-2-carboxamide; formic acid], 0.479 µM; that for `Cn1c(-c2cn(C3CC3)nc2C(F)(F)F)cnc1C(=O)Nc1ccc(C(=O)N2CCN(C(=O)N3CCC(N)CC3)CC2)c(Cl)c1` [Example 362, N-(4-(4-(4-aminopiperidine-1-carbonyl)piperazine-1-carbonyl)-3-chlorophenyl)-5-(1-cyclopropyl-3-(trifluoromethyl)-1H-pyrazol-4-yl)-1-methyl-1H-imidazole-2-carboxamide formate], 0.48 µM. Consider `Cn1c(-c2cn(CC(F)F)nc2C(F)(F)F)cnc1C(=O)Nc1ccc(C(=O)N2CCC23CN(C(=O)C2CCNCC2)C3)c(Cl)c1` [Example 363, N-(3-chloro-4-(6-(piperidine-4-carbonyl)-1,6-diazaspiro[3.3]heptane-1-carbonyl)phenyl)-5-(1-(2,2-difluoroethyl)-3-(trifluoromethyl)-1H-pyrazol-4-yl)-1-methyl-1H-imidazole-2-carboxamide formate], for which the IC90 is 0.481 µM.

On to `Cn1c(-c2cn(CC(F)F)nc2C(F)F)cnc1C(=O)Nc1ccc(C(=O)N2CCN(C(=O)[C@H]3[C@@H]4CNC[C@@H]43)CC2)c(Cl)c1` [Example 364, N-(4-(4-((1R,5S,6r)-3-azabicyclo[3.1.0]hexane-6-carbonyl)piperazine-1-carbonyl)-3-chlorophenyl)-5-(1-(2,2-difluoroethyl)-3-(difluoromethyl)-1H-pyrazol-4-yl)-1-methyl-1H-imidazole-2-carboxamide formate], for which the IC90 was 0.482 µM.

`CNC1CCN(C(=O)c2ccc(NC(=O)c3ncc(-c4cn(C5CC5)nc4C(F)(F)F)n3C)cc2Cl)CC1` [Example 366, N-(3-chloro-4-(4-(methylamino)piperidine-1-carbonyl)phenyl)-5-(1-cyclopropyl-3-(trifluoromethyl)-1H-pyrazol-4-yl)-1-methyl-1H-imidazole-2-carboxamide formate]: the IC90 is 0.483 µM. The result for `Cn1c(-c2cn(C3CC3)nc2C(F)(F)F)cnc1C(=O)Nc1ccc(C(=O)N2CCN(C(=O)[C@@H]3C[C@H](F)CN3)CC2)c(Cl)c1` [Example 367, N-(3-chloro-4-(4-((2S,4S)-4-fluoropyrrolidine-2-carbonyl)piperazine-1-carbonyl)phenyl)-5-(1-cyclopropyl-3-(trifluoromethyl)-1H-pyrazol-4-yl)-1-methyl-1H-imidazole-2-carboxamide hydrochloride] reads 0.484 µM; that for `CN(C(=O)c1ccc(NC(=O)c2ncc(-c3cn(C4CC4(F)F)nc3C(F)(F)F)n2C)cc1Cl)C1CCNCC1` (stereo not shown) [Example 368, N-(3-chloro-4-(methyl(piperidin-4-yl)carbamoyl)phenyl)-5-(1-(2,2-difluorocyclopropyl)-3-(trifluoromethyl)-1H-pyrazol-4-yl)-1-methyl-1H-imidazole-2-carboxamide formate], 0.484 µM. On to `Cn1c(-c2cn(CC3CC3)nc2C(F)(F)F)cnc1C(=O)Nc1ccc(C(=O)N2CCN(C(=O)N[C@@H]3CC[C@@H](N)C3)CC2)c(Cl)c1` [Example 369, N-((1R,3R)-3-aminocyclopentyl)-4-(2-chloro-4-(5-(1-(cyclopropylmethyl)-3-(trifluoromethyl)-1H-pyrazol-4-yl)-1-methyl-1H-imidazole-2-carboxamido)benzoyl)piperazine-1-carboxamide], for which the IC90 was 0.485 µM. For the molecule `Cn1c(-c2cn(C3CC3)nc2C(F)(F)F)cnc1C(=O)Nc1ccc(C(=O)N2CCC(N3CCC(O)CC3)CC2)c(Cl)c1` [Example 370], the IC90 amounted to 0.485 µM. With `Cn1c(-c2cn(CC3CCC3)nc2C(F)(F)F)cnc1C(=O)Nc1ccc(C(=O)N2CCNCC2)c(Cl)c1` [Example 371, N-(3-chloro-4-(piperazine-1-carbonyl)phenyl)-5-(1-(cyclobutylmethyl)-3-(trifluoromethyl)-1H-pyrazol-4-yl)-1-methyl-1H-imidazole-2-carboxamide dihydrochloride] the figure was 0.485 µM.
